For six compounds, IC50 results are on record in ChEMBL document CHEMBL1158104, “Mooloolabenes A-E, norsesterterpenes from the Australian sponge Hyattella intestinalis” (J Nat Prod, 2006).

≈ marks a conversion by molar mass, not a printed value.

Usually IC50 stands for the concentration needed to halve the response being measured. Read a high IC50 as a need for much substance.

The experiment relates to P388. Kind of experiment: Cytotoxicity against mouse P388 cells. The class given is functional, cell-based.
Take `CC1(C)CCC[C@]2(C)[C@H]3CC[C@]4(C)[C@@H](C=O)C(C=O)=CC[C@H]4C3=CC[C@@H]12` [MOOLOOLABENE A]: the IC50 is 0.8 µg/mL (≈ 2.26 µM).
As for `CC1(C)CCC[C@]2(C)[C@H]3CC[C@]4(C)[C@H](C=O)C(C=O)=CC[C@H]4C3=CC[C@@H]12` [MOOLOOLABENE B], the IC50 is 1.2 µg/mL (≈ 3.38 µM).
Consider `CC(=O)OC[C@@]1(C)CCC[C@]2(C)[C@H]3CC[C@]4(C)[C@@H](C=O)C(C=O)=CC[C@H]4C3=CC[C@@H]12` [MOOLOOLABENE C], for which inhibition was half-maximal at 3 µg/mL (≈ 7.27 µM) (IC50).
With `CC(=O)O[C@@H]1OCC2=CC[C@H]3C4=C[C@@H](OC(C)=O)[C@H]5C(C)(C)CCC[C@]5(C)[C@H]4CC[C@]3(C)[C@H]21` [MOOLOOLABENE D] the figure was 3 µg/mL (≈ 6.57 µM); with `CC(=O)O[C@@H]1OCC2=CC[C@H]3C4=CC[C@H]5C(C)(C)CCC[C@]5(C)[C@H]4CC[C@]3(C)[C@H]21` [MOOLOOLABENE E], 3 µg/mL (≈ 7.53 µM).
`CC(=O)O[C@@H]1OC=C2CC[C@@H]3[C@](C)(CC[C@@H]4[C@@]5(C)CCCC(C)(C)[C@@H]5CC[C@@]34C=O)[C@H]21` [MOOLOOLALDEHYDE] showed an IC50 of 3 µg/mL (≈ 7 µM).
